Among the data in PubChem BioAssay (NCI) are TGI and GI50 values, retold here.

“And” between values parts separate entries of the source, which are not always exact repeats. Equal values may be shown once.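 Cells were grown in 96-well plates and exposed to each compound for 48 hours at five concentrations; endpoints were interpolated linearly between bracketing concentrations, or set to the highest concentration if not reached. GI50 is the concentration that inhibits growth by half. TGI: total growth inhibition.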

Test systems include HL-60(TB) leukemia; COLO 205 colon; LOX IMVI melanoma; KM12 colon; HT29 colon; U251 CNS; SW-620 colon; SNB-75 CNS; MDA-MB-231 breast; SF-295 CNS; TK-10 renal; HOP-62 NSCLC.
Experiment in all cases: NCI tumour cell line growth inhibition, 48 h

On to `CC(=O)O[C@H]1C[C@]2(C)C(CCC3O[C@@]32C)[C@@]2(CC(c3ccoc3)OC2O)[C@@H]1C` (stereo not given in full), for which the TGI with HL-60(TB) leukemia was 52 µM; in the assay on COLO 205 colon it was over 100 µM; with LOX IMVI melanoma, over 100 µM; with KM12 colon, over 100 µM; in the assay with HT29 colon, over 100 µM; in the assay on U251 CNS, over 100 µM. Also, the TGI in the assay with SW-620 colon, in the assay with SNB-75 CNS, in the assay with MDA-MB-231 breast, in the assay with SF-295 CNS and with TK-10 renal was over 100 µM throughout.
On to `CCCNC(=S)N/N=C/c1cccc(C)n1`, for which the TGI was 50.8 µM in the assay on HL-60(TB) leukemia; over 100 µM in the assay with HOP-62 NSCLC; over 100 µM with COLO 205 colon; over 100 µM in the assay on LOX IMVI melanoma; over 100 µM with KM12 colon; over 100 µM with HT29 colon. Moreover, the TGI with U251 CNS, in the assay on MDA-MB-231 breast, with SF-295 CNS and with TK-10 renal was over 100 µM each time.
`CC[C@@]1(O)C(=O)OCc2c1cc1n(c2=O)Cc2c-1nc1ccccc1c2CC[Si](C)(C)C`: the TGI was over 100 µM with HL-60(TB) leukemia; 0.458 µM in the assay with HOP-62 NSCLC; 14.2 µM with COLO 205 colon; over 40.6 µM in the assay with HT29 colon; 0.103 µM with U251 CNS; over 100 µM in the assay with SW-620 colon. Moreover, the TGI in the assay on MDA-MB-231 breast is over 53.9 µM; in the assay on SF-295 CNS, 0.0544 µM.
Consider `COc1cc([C@@H]2c3cc4c(cc3[C@@H](NCCNCCO)[C@H]3COC(=O)[C@H]23)OCO4)cc(OC)c1O`, for which the GI50 in the assay with HL-60(TB) leukemia is 0.173 µM and 0.0466 µM; in the assay with SF-295 CNS, 1.61 µM and 0.719 µM. For the same molecule, the TGI in the assay with HOP-62 NSCLC was 5.18 µM and 6.52 µM; in the assay with COLO 205 colon, 24 µM and 24.5 µM; in the assay on KM12 colon, > 40.2 µM and 17.5 µM; in the assay on HT29 colon, over 29.9 µM; in the assay with U251 CNS it was 5.35 µM; with SW-620 colon, over 100 µM. For the same molecule, the TGI was 8.64 µM and 5.94 µM with SNB-75 CNS; 21.6 µM in the assay with MDA-MB-231 breast; > 29 µM and 7.12 µM in the assay on SF-295 CNS; 33.8 µM and 39.3 µM in the assay with TK-10 renal.
Turning to `O=C(O)CSc1cc(-c2ccccc2)nc2ccccc12`, the TGI in the assay with HL-60(TB) leukemia was 58.2 µM; in the assay with HOP-62 NSCLC, over 100 µM; with LOX IMVI melanoma it was over 100 µM; in the assay on KM12 colon it was over 100 µM; with HT29 colon it was over 100 µM; in the assay with U251 CNS, over 100 µM. Further, the TGI in the assay on SW-620 colon, in the assay with MDA-MB-231 breast, in the assay on SF-295 CNS and with TK-10 renal was over 100 µM each time.
Consider `COc1ccc(C2SCC(=O)N2c2ccc(-c3ccc(-n4c(-c5ccccc5)nc5ccccc5c4=O)cc3)cc2)cc1` (stereo not given), for which the TGI in the assay on HL-60(TB) leukemia is over 100 µM; with HOP-62 NSCLC it was over 100 µM; with COLO 205 colon, over 100 µM; with LOX IMVI melanoma it was over 100 µM; with KM12 colon, 79.8 µM; in the assay on HT29 colon, 30.5 µM. Also, the TGI in the assay on U251 CNS, in the assay on SW-620 colon, with MDA-MB-231 breast, in the assay with SF-295 CNS and with TK-10 renal was over 100 µM throughout.
Turning to `O=C(/C=C/c1ccc(O)c(O)c1)OCCc1cccc2ccccc12`, the TGI in the assay on HL-60(TB) leukemia worked out at 3.52 µM; in the assay with COLO 205 colon, 20.5 µM; with KM12 colon it was 23.4 µM; with HT29 colon, 27.5 µM; with U251 CNS it was 21.7 µM; in the assay with SW-620 colon, 18.9 µM. The TGI with SNB-75 CNS was 9.57 µM; with MDA-MB-231 breast it was 7.56 µM; with SF-295 CNS, 17.9 µM; in the assay with TK-10 renal it was 13.6 µM.
Regarding `Cc1csc2nc(-c3ccc([N+](=O)[O-])cc3)c(/C=N/N=C(N)N)n12`, the TGI in the assay on HL-60(TB) leukemia was determined as 4.49 µM; in the assay on HOP-62 NSCLC, 3.28 µM; in the assay on COLO 205 colon it was 2.96 µM; with LOX IMVI melanoma, 3.63 µM; with KM12 colon it was 3.49 µM; in the assay on HT29 colon, 3.21 µM. Also, the TGI in the assay with U251 CNS worked out at 3.24 µM; in the assay on SNB-75 CNS, 2.97 µM; with MDA-MB-231 breast, 3.52 µM; in the assay on SF-295 CNS it was 3.24 µM; with TK-10 renal it was 3.9 µM.
With `COc1ccc(Cc2nc3cc(C(F)(F)F)ccc3n2CCCN(C)C)cc1`, the TGI in the assay on HL-60(TB) leukemia is 27.1 µM; in the assay with HOP-62 NSCLC, over 100 µM; in the assay with COLO 205 colon, 34.3 µM; with LOX IMVI melanoma, 40 µM; in the assay with KM12 colon, 30.3 µM; in the assay with HT29 colon, 39.9 µM. The TGI in the assay with U251 CNS was found to be 31.9 µM; in the assay with SW-620 colon it was 44.7 µM; in the assay on MDA-MB-231 breast, 64.6 µM; in the assay with SF-295 CNS, 37.5 µM; in the assay on TK-10 renal it was 50.2 µM.
In the case of `C1COC(NC(C2CC2)C2CC2)=N1`, the TGI with HL-60(TB) leukemia, in the assay on COLO 205 colon, with LOX IMVI melanoma, with KM12 colon, in the assay on HT29 colon and in the assay with U251 CNS was over 100 µM in each case. Further, the TGI in the assay with SW-620 colon, in the assay with SNB-75 CNS, with MDA-MB-231 breast, in the assay on SF-295 CNS and in the assay with TK-10 renal was over 100 µM in each case.
Regarding `COc1ccc(/C=C2\CSC/C(=C\c3ccc(OC)c(OC)c3OC)C2=O)c(OC)c1OC`, the TGI in the assay on HL-60(TB) leukemia was 72.1 µM; in the assay with HOP-62 NSCLC it was over 100 µM; in the assay on COLO 205 colon, over 100 µM; in the assay with LOX IMVI melanoma, 83.3 µM; in the assay on KM12 colon, over 100 µM; with HT29 colon it was over 100 µM. Also, the TGI in the assay with U251 CNS was over 100 µM; with SW-620 colon, 58.6 µM; with MDA-MB-231 breast, over 100 µM; in the assay with SF-295 CNS it was 99.6 µM; in the assay with TK-10 renal it was over 100 µM.
As to `N#Cc1c(-c2ccccc2)/c(=C\O)c(=O)n2c1nc1ccccc12`, the TGI in the assay with HL-60(TB) leukemia, in the assay on COLO 205 colon, in the assay on KM12 colon, in the assay with HT29 colon, in the assay with U251 CNS and with SW-620 colon was over 100 µM throughout. The TGI was 91.9 µM in the assay on SNB-75 CNS, over 100 µM in the assay on MDA-MB-231 breast, over 100 µM in the assay with SF-295 CNS and over 100 µM in the assay with TK-10 renal.
Regarding `CC(=O)C1=C(N=[N+]=[N-])c2cccc3cccc(c23)C1=O`, the TGI was found to be 29.7 µM in the assay with HOP-62 NSCLC; 31.7 µM in the assay with COLO 205 colon; 30.1 µM with LOX IMVI melanoma; 44.7 µM in the assay with KM12 colon; 39.3 µM in the assay on HT29 colon; 66 µM in the assay on U251 CNS. The TGI in the assay on SW-620 colon amounted to 55.1 µM; with SNB-75 CNS, 66.9 µM; with MDA-MB-231 breast, 32 µM; in the assay on SF-295 CNS, 61.7 µM; in the assay on TK-10 renal, 36.1 µM.
Turning to `CC[N+]1(C)CCC(O)(c2ccc(Cl)cc2)C(C(=O)c2ccc(Cl)cc2)C1` (stereo not given), the TGI was over 100 µM in the assay with HL-60(TB) leukemia; 46.8 µM in the assay on HOP-62 NSCLC; 23.8 µM in the assay with COLO 205 colon; 25.6 µM with LOX IMVI melanoma; 31.7 µM in the assay on KM12 colon; 94.4 µM in the assay with HT29 colon. The TGI in the assay on U251 CNS stood at 56.8 µM; in the assay on MDA-MB-231 breast it was 40.5 µM; in the assay on TK-10 renal it was 34.1 µM.
On to `COc1cccc2cc(C(N)=O)c(=N)oc12`, for which the TGI with HL-60(TB) leukemia, in the assay on COLO 205 colon, with LOX IMVI melanoma, with KM12 colon, with HT29 colon and in the assay with U251 CNS was over 100 µM in each case. In addition, the TGI with SW-620 colon, in the assay with SNB-75 CNS and in the assay on MDA-MB-231 breast was over 100 µM each time.
Take `O=C(c1cc(Cl)cc(Cl)c1)N(C(=S)OC12CC3CC(CC(C3)C1)C2)c1ccccc1`: the TGI is 84.5 µM in the assay on HL-60(TB) leukemia; over 100 µM in the assay on HOP-62 NSCLC; 35.4 µM in the assay on COLO 205 colon; over 100 µM with KM12 colon; over 100 µM in the assay on HT29 colon; over 100 µM with U251 CNS. Further, the TGI in the assay on SW-620 colon, with SNB-75 CNS, with MDA-MB-231 breast, in the assay with SF-295 CNS and in the assay on TK-10 renal was over 100 µM throughout.
Turning to `C=C(C=O)c1c2c(nc3ccccc13)C(=O)c1ccccc1C2=O`, the TGI in the assay with HL-60(TB) leukemia is 15.9 µM; with HOP-62 NSCLC, 2.48 µM; with LOX IMVI melanoma, 45 µM; in the assay on KM12 colon, 2.71 µM; in the assay with U251 CNS, over 100 µM; in the assay with SNB-75 CNS, 2.18 µM. Moreover, the TGI is 3.27 µM in the assay on MDA-MB-231 breast, 2.76 µM in the assay on SF-295 CNS and 2.32 µM in the assay with TK-10 renal.
For the molecule `N#Cc1[nH]c(=O)n(-c2ccc(Cl)cc2)c1N`, the TGI in the assay on HL-60(TB) leukemia, with HOP-62 NSCLC, with COLO 205 colon, with LOX IMVI melanoma, in the assay with KM12 colon and in the assay with HT29 colon was over 10 µM throughout. Also, the TGI in the assay with U251 CNS, with MDA-MB-231 breast, in the assay on SF-295 CNS and in the assay with TK-10 renal was over 10 µM in each case.
`O=C(N/N=C1\CCc2ccccc2C1)N/N=C1\CCc2ccccc2C1`: the TGI in the assay on HL-60(TB) leukemia, in the assay with HOP-62 NSCLC, in the assay with COLO 205 colon, with KM12 colon, in the assay with HT29 colon and in the assay with U251 CNS was over 10 µM each time. The TGI in the assay with SW-620 colon, in the assay on MDA-MB-231 breast, in the assay on SF-295 CNS and in the assay with TK-10 renal was over 10 µM throughout.
Consider `COC(=O)CC1(CNC(=O)OCc2ccccc2)OCCO1`, for which the TGI with HL-60(TB) leukemia, in the assay with COLO 205 colon, in the assay on LOX IMVI melanoma, in the assay on KM12 colon, in the assay on U251 CNS and in the assay with SW-620 colon was over 100 µM each time. Besides, the TGI in the assay on SNB-75 CNS, with MDA-MB-231 breast, in the assay with SF-295 CNS and with TK-10 renal was over 100 µM throughout.
